Laboratory results from patent US20200146989A1, “A CO-AMORPHOUS FORM OF A SUBSTANCE AND A DIPEPTIDE” (University of Copenhagen, priority 2016, published 2020).
Where “and” joins values, the source holds several entries; their conditions need not be identical. Equal entries are not always repeated.

What was measured:
Format in all cases: physicochemical
[1] = Ease of amorphization by ball milling, checked by XRPD; parameters: key to Success in amorphization (yes/no): yes=y; no=n
Method: Amorphous and co-amorphous systems of the pure drugs and the binary and ternary mixtures with the amino acids or ASPA were prepared by vibrational ball milling.
The samples were prepared by placing a total amount of 500 mg of either the pure crystalline drug, mixtures of drug with one or two amino acids (molar ratio of either 1:1 or 1:1:1) or drug-dipeptides (1:1 molar ratio) in 25 ml milling jars containing two 12 mm stainless steel balls. The samples were milled at 30 Hz up to 180 min in an oscillatory ball mill (Mixer Mill MM400, Retch GmbH & Co, Haan, Germany) placed in a cooling room at 6° C.
(§1) The X-ray powder diffraction (XRPD) analysis was performed using a X'Pert Pro X-ray Diffractometer (PANalytical, Almelo, The Netherlands) using a Cu Kα radiation source (λ=1.54187 Å). An acceleration voltage and current of 45 kV and 40 mA were used. Samples were scanned in reflection mode between 5° and 35° 2θ with a scan speed of 0.0673° 2θ/s and a step size of 0.0262°. Data were collected and analyzed using the software X'Pert Data Collector (PANalytical, Almelo, The Netherlands). Samples were filled onto aluminum sample holders and gently compressed with a spatula, in order to contain a compacted and smooth surface.

[2] = Intrinsic dissolution rate (IDR) of compressed disks; conditions: 0.01M phosphate buffer pH 7.2, 37° C., 100 rpm, triplicate
Method: For the intrinsic dissolution rate (IDR) studies, 150 mg of powder was compressed directly into stainless steel cylinders, which served as IDR sample holders, with a hydraulic press (Hydraulische Presse Model IXB-102-9, PerkinElmer, Ueberlingen, Germany). Disks of pure crystalline drug, pure amorphous drug, and the co-amorphous blends of respectively drug-AA, drug-AA-AA and drug-dipeptide, shown in table 1.1, were compressed at different compaction pressures between 124.9 MPa and 249.7 MPa for 60 seconds in order to obtain a stable compact with smooth surface.
For the dissolution experiment an Erweka DT70 dissolution tester (Erweka GmbH, Heusenstamm, Germany) was used. […] The samples were analyzed with the respective HPLC method for the different drugs as described below. […]
The IDR was calculated as the drug release per accessibility area (μg cm^−2). For this purpose the drug concentration at the different time points was analyzed with HPLC (μg mL-^1), multiplied with 900 ml and divided with the accessible surface area of the drug.
For the pure drugs the accessible area, was set to be the surface area of the compact (0.7854 cm^2). […] The corrected accessible surface area was calculated based on the accessibility area within the mixture. […] From the calculated drug volume and the total volume of the tablet the relative drug volume percentage could be determined. […]

[3] = Physical stability of amorphous and co-amorphous samples on dry storage, recrystallization detected by XRPD; conditions: for Stability at 40° C. / Stability at room temperature: dry conditions, amorphous halo in XRPD
Method: as §1, with “a X'Pert Pro X-ray” left out, “Å).” for “Å).”, “surface. The pure amorphous drugs and co-amorphous mixtures were stored under dry conditions in desiccators at room temperature and 40° C.” for “surface.”

[4] = Powder dissolution, miniaturized USP 2 set-up; conditions: 0.1 M phosphate buffer pH 6.8, 37° C.; for MEB concentration released after 20 min of dissolution: 100 rpm, 5 mg MEB in 100 ml
Method: Powder dissolution studies were performed in an ERWEKA DT70 dissolution tester (Heusenstamm, Germany) equipped with a custom-made miniaturized dissolution set-up described earlier [DOI: 10.1208/s12249-008-9161-6]. This set-up is a down-scaled version (the vessel size is 250 mL) of USP apparatus 2, and the hydrodynamics is essentially similar to the standard USP 2 apparatus. Pure drugs, drug-ASPA mixtures or drug-dipeptide mixtures containing an equivalent amount of 5 mg of MEB or 5 mg of TAD in total were placed in 100 ml of 0.1 M phosphate buffer (pH 6.8, 37° C.) and stirred at a rotation speed of 100 rpm. At predetermined time points (2, 5, 10, 20, 30, 60, 120, 180, 240, 300 and 360 min), 1 ml sample was withdrawn and immediately replaced with pre-warmed dissolution buffer. The obtained samples were quantified after filtration (0.45 μm) with the respective HPLC method for the different drugs as described below. All dissolution experiments were conducted in triplicate.
All samples from the dissolution studies were analyzed on a Dionex (Germering, Germany) HPLC system equipped with a P680 pump, an ASI-100 automated sample injector and a PDA 100 photodiode array detector was used. A reverse-phase Kinetex C18 ([…]×4.6 mm, 5 μm) column with UV detection at 240 nm for CRV, 264 nm for IND, 312 nm for MEB and 285 nm for TAD was used, with a constant flow rate of 1.0 ml min^−1 and an isocratic solvent system. The mobile phases (MP) consisted of 50% (V/V) phosphoric acid (pH=2) and 50% MeOH for the analysis of CRV, 25% (V/V) phosphoric acid (pH=2) and 75% MeOH for the analysis of IND, 47% (V/V) of 0.05 M KH2PO4, 20% (V/V) of acetonitrile and 33% (V/V) methanol for the analysis of MEB, 60% (V/V) 0.0724 M pH 6.8 phosphate buffer and 40% (V/V) of acetonitrile for the analysis of TAD, respectively. Chromatograms were analyzed by using Chromeleon Version 7.1.3.2425 software. […]

COc1ccccc1OCCNCC(O)COc1cccc2[nH]c3ccccc3c12 (centres unmarked) [CRV, Carvedilol]
Success in amorphization (yes/no) ([1]; IND and CRV samples, ball milled 90 or 180 min, XRPD): y | intrinsic dissolution rate (IDR) ([2]; listed as amorphous CRV): 0.0086±0.001 mg cm^−2 min^−1 and 0.009±0.001 mg cm^−2 min^−1

COc1ccc2c(c1)c(CC(=O)O)c(C)n2C(=O)c1ccc(Cl)cc1 [IND, Indomethacin]
Stability at 40° C. ([3]; IND and CRV): <7 days | Stability at room temperature ([3]; IND and CRV): <7 days | recrystallization peaks in the XRPD diffractograms within ([3]; storage at room temperature and 40° C. dry conditions, temperature not split in the sentence): ≤ 7 days | intrinsic dissolution rate (IDR) [2]: 0.128±0.004 mg cm^−2 min^−1

COC(=O)Nc1nc2ccc(C(=O)c3ccccc3)cc2[nH]1 [crystalline MEB, Mebendazole]
MEB concentration released after 20 min of dissolution [4]: 0.23 µg/mL

COC(=O)Nc1nc2ccc(C(=O)c3ccccc3)cc2[nH]1 [MEB, Mebendazole]
Stability at room temperature ([3]; MEB and TAD): >2 months | Milling time fully amorphization ([1]; MEB samples, XRPD at 30, 60, 90 and 180 min of ball milling): 60 min | Success in amorphization (yes/no) ([1]; MEB samples, ball milled, XRPD at 30, 60, 90 and 180 min): y | MEB concentration released after 20 min of dissolution ([4]; listed as amorphous MEB): 0.99 µg/mL | concentration after 240 min of dissolution as fold of crystalline MEB ([4]; 240 min): approx. 4.3 fold

CN1CC(=O)N2[C@H](c3ccc4c(c3)OCO4)c3[nH]c4ccccc4c3C[C@@H]2C1=O [TAD, Tadalafil]
Stability at 40° C. ([3]; MEB and TAD): >2 months | Stability at room temperature ([3]; MEB and TAD): >2 months
